According to US20260315499A1, “2'- {HETEROCYCLYL (ARYL/ALKYL) METHYL} - CANNABIDIOL COMPOUNDS AND PROCESS FOR PREPARATION THEREOF” (COUNCIL OF SCIENTIFIC & INDUSTRIAL RESEARCH, priority 2023, published 2026):
“And” between values parts separate entries of the source, which are not always exact repeats. Equal values may be shown once.

What was measured:
[1] = tested on: mouse neuroblastoma cell line N2A; experiment: In vitro neuroprotection against corticosterone, differentiated N2A, 48 hrs; assay type: cell-based; conditions: test compound 20 μM + Cort. 400 μM, read-out: % Cell viability ± SD, N2A
Procedure: Human neuroblastoma cells (SHSY5Y) and mouse neuroblastoma cells (N2A) were procured from American Type Culture Collection (ATCC). SHSY5Y cell cultures were maintained in DMEM F12 (Invitrogen) whereas N2A were cultured in DMEM (Invitrogen) with 10% Fetal Bovine Serum (Gibco) medium, subjected to differentiation to acquire neuronal morphology (employing differentiation media DMEM-F12, 3-5% FBS, (For differentiation, low concentration of FBS was used) and 50 μM retinoic acid). Differentiated cells were later seeded into 96 well plates, at a density of 1×10^4 before being incubated for 48 hrs with the synthesized library. The exhausted culture media was substituted with new culture media containing 0.5 mg/ml MTT dye. Eventually, the OD at 490 nm excitation was measured using a 96-well plate reader. The proportion of viable cells was determined as percentage of absorbance of untreated cultures relative to control.
In the next attempt, the neuroprotective properties of the generated library (20 μM, 48 hrs) were assessed employing differentiated human neuroblastoma cell line SHSY5Y and mouse neuroblastoma cell line N2A (Biomol Ther., 2022, 30(6), 570-575). The cells were assaulted with the neurotoxic corticosterone (Cort, 400 μM) for 24 hrs after the overnight preincubation of cells with test molecules as a selection criterion. […]

[2] = tested on: differentiated SHSY5Y cell cultures; experiment: Neuroprotective potential in differentiated SHSY5Y after 96 hrs, concentration series with and without corticosterone; assay type: cell-based, human
From the text: Furthermore, A1 intervention in presence of corticosterone evidenced neuroprotective effect against corticosterone induced impairment and cell death.

p TrkB 515 = experiment: Survival pathway protein expression by western blotting in SHSY5Y; assay type: cell-based, human
Procedure: Here, A1 was tested to find its role in eliciting survival pathway proteins in differentiated human neuroblastoma cells in concentration and time dependent manner.
To investigate the effect of A1 on the survival proteins, SHSY5Y cell cultures were treated with different concentrations for 6 hrs and analyzed for the expression of survival proteins, including p-Erk 44/42, p-AKT 473, Anti BDNF, and p TrkB 816 and p TrKB 515 by western blotting.

[3] = tested on: nitric oxide (NO) production in RAW264.7 macrophages; experiment: In vitro anti-inflammatory activity: nitric oxide production (Griess) in LPS-exposed RAW264.7 macrophages; assay type: cell-based, mouse; conditions: Mus musculus, RAW264.7, LPS 24 hrs, read-out: % NO Inhibition ± SD
Procedure: Measurement of Nitric oxide: RAW264.7 macrophages were seeded in 96-well plates with a density of 0.5×10^5 cells/well and incubated overnight at 37° C. in a 5% CO2 atmosphere. The cells were treated with different concentration of CBD and its analogues and exposed to LPS for 24 hrs. For nitric oxide (NO) determination, the cell culture supernatant was taken and mixed with equal volume of Griess reagent in another 96 well plate at room temperature (Biomed Pharmacother., 2017, 92, 175-186). The absorbance was measured at 540 nm. The final calculations were determined on a NaNO2 standard curve.

[4] = In vivo corticosterone induced depression model: effect on body weight; set-up: species or system mouse (male C57); conditions: 21 days; for Weight (g) ± SD: A1 20 mg/kg oral, fluoxetine 18 mg/kg
Procedure: (§1) In vivo efficacy (ameliorates behavioral despair) of A1 in corticosterone induced model of stress (J. Neurochem., 2018 146, 722 734). […] A1 (20 mg/kg, oral) dissolved in normal saline was given for 3 consecutive weeks following corticosteroid stress. The sucrose preference test was employed, tail suspension test, and forced swim test to evaluate behavioral distress. We noticed that A1 can resurrect mice in stressful situations. […]

depression mice model [5] = experiment: In vivo corticosterone induced depression model: sucrose preference test; set-up: species or system mouse (male C57); conditions: for % Sucrose consumption (ml) ± SD: 2% sucrose, 21 days
Procedure: as §1
Sucrose consumption was employed to evaluate anhedonia, a core hallmark of depression in mice. The animals were allowed unfettered access to both identical bottles, one containing water while the other contained a 2% solution of sucrose, for 21 days.
The below equation was later employed to determine water and sugar consumed by mice:
Sucrose Preference=Sucrose consumed[…]/Total fluid intake.

depression mice model [6] = experiment: In vivo corticosterone induced depression model: Tail Suspension Test (TST); set-up: species or system mouse (male C57); conditions: A1 20 mg/kg, fluoxetine 18 mg/kg
Procedure: A1 (20 mg/kg, oral) dissolved in normal saline was given for 3 consecutive weeks following corticosteroid stress. The sucrose preference test was employed, tail suspension test, and forced swim test to evaluate behavioral distress.
Tail Suspension Test (TST) is a behavioral test employed to assess perturbations expected to influence depression like phenotypes. TST is grounded on the reflection that the extent of immobility is allied with depressing phenotype of mice overturned by antidepressants. Mice were positioned 2 cm from their tail tips and 5 cm above the ground suspending the tails using adhesive tape for the free movement (Acta Neuropathol Commun., 2016, 4(1), 108).
The contemporary immobility was alluded to as interruption in motion, where a blind assessor evaluates the disappointed aspect of display before scoring it.

[7] = tested on: differentiated SHSY5Y cell cultures; experiment: Neuroprotective potential in differentiated SHSY5Y after 96 hrs, concentration series with and without corticosterone; assay type: cell-based, human; remark: listed apart in the source
p-Erk 44/42 = experiment: Survival pathway protein expression by western blotting in SHSY5Y; assay type: cell-based, human; conditions: for Relative Protein Expression p ERK 44/42: A1 + Cort.

## C=C(C)[C@@H]1CCC(C)=C[C@H]1c1c(O)cc(CCCCC)c(CN2CCOCC2)c1O [A1, 2′-(morpholin-1-ylmethyl)-cannabidiol]
[1]
  viability at 20 µM: 97.6 ± 1.97%
[2]; Homo sapiens, SH-SY5Y, 96 h, A1 1.25 μM + Cort 400 μM, 96 hrs
  viability at 1.25 µM: 83.8%
[2]; Homo sapiens, SH-SY5Y, 96 h, A1 2.5 μM + Cort 400 μM, 96 hrs
  viability at 2.5 µM: 93.6%
[2]; Homo sapiens, SH-SY5Y, 96 h, A1 10 μM + Cort 400 μM, 96 hrs
  viability at 10 µM: 113%
[2]; Homo sapiens, SH-SY5Y, 96 h, A1 20 μM + Cort 400 μM, 96 hrs
  viability at 20 µM: 108%
[2]; Homo sapiens, SH-SY5Y, 96 h, A1 40 μM + Cort 400 μM, 96 hrs
  viability at 40 µM: 102%
[2]; in presence of corticosterone
  neuroprotection against corticosterone (in words): substantial level of neuroprotection by significantly lowering the corticosterone cytotoxic activity
P TrkB 515; A1 10 μM, 6 hrs
  Relative Protein Expression p TrkB 515: 1.75
P TrkB 515; A1 + Cort., 6 hr
  Relative Protein Expression p TrkB 515: 6.675
P TrkB 515; A1/Cort., A1 5 μM, 6 hrs
  Relative Protein Expression p TrkB 515: 0.07
P TrkB 515; A1/Cort., A1 10 μM, 6 hrs
  Relative Protein Expression p TrkB 515: 1.30
P TrkB 515; different concentrations of A1, 6 hrs
  expression of p TrkB 515 (in words): increased significantly except for the expression of p-AKT 473 and p TrkB 515
[3]; 5 μM
  inhibition at 5 µM: 7.1 ± 0.8%
[3]; 10 μM
  inhibition at 10 µM: 12.3%
[4]; 20 mg/kg oral
  toxicity / weight fluctuations (in words): no discernible toxicity
[4]; with Cort. 35 μg/ml
  Weight (g) ± SD: 36.75 ± 3.88 g
[4]; without Cort.
  Weight (g) ± SD: 42.88 ± 2.69 g
Depression mice model [5]; compared with stressed mice
  increase of sucrose consumption: more than 50%
Depression mice model [5]; with Cort.
  % Sucrose consumption (ml) ± SD: 78.02±0.99%
Depression mice model [5]; without Cort.
  % Sucrose consumption (ml) ± SD: 83.80±0.80%
Depression mice model [6]; with Cort. 35 μg/ml
  % Immobility (sec) ± SD (dead time): 33.05 ± 5.62 s
  % Latency to immobility (sec) ± SD: 36.90 ± 14.54 s
Depression mice model [6]; without Cort.
  % Immobility (sec) ± SD (dead time): 28.76 ± 9.01 s and 28.76 ± 9.10 s
  % Latency to immobility (sec) ± SD: 54.35 ± 9.74 s
[7]; A1 alone 1.25, 2.5, 5, 10, 20 and 40 μM
  cell viability compared to positive control DHF (in words): no significant variation in cell viability when compared to positive control DHF
[7]; Homo sapiens, SH-SY5Y, 96 h, A1 1.25 μM, without Cort
  viability at 1.25 µM: 102%
[7]; Homo sapiens, SH-SY5Y, 96 h, A1 2.5 μM, without Cort
  viability at 2.5 µM: 108%
[7]; Homo sapiens, SH-SY5Y, 96 h, A1 5 μM + Cort 400 μM, 96 hrs
  viability at 5 µM: 103%
[7]; Homo sapiens, SH-SY5Y, 96 h, A1 5 μM, without Cort
  viability at 5 µM: 108%
[7]; Homo sapiens, SH-SY5Y, 96 h, A1 10 μM, without Cort
  viability at 10 µM: 117%
[7]; Homo sapiens, SH-SY5Y, 96 h, A1 20 μM, without Cort
  viability at 20 µM: 115%
[7]; Homo sapiens, SH-SY5Y, 96 h, A1 40 μM, without Cort
  viability at 40 µM: 115%
[7]; concentrations as high as 40 μM, up to 96 hrs, with and without corticosterone
  toxicity (in words): non-toxic even at concentrations as high as 40 μM
p-Erk 44/42; 0 hr
  Relative Protein Expression p ERK 44/42: 1.00
p-Erk 44/42; 0.5 hr
  Relative Protein Expression p ERK 44/42: 1.32
p-Erk 44/42; 1 hr
  Relative Protein Expression p ERK 44/42: 3.29
p-Erk 44/42; 2 hr
  Relative Protein Expression p ERK 44/42: 8.33
p-Erk 44/42; 4 hr
  Relative Protein Expression p ERK 44/42: 9.69
p-Erk 44/42; 6 hr
  Relative Protein Expression p ERK 44/42: 10.62
p-Erk 44/42; A1 for multiple time spans, corticosterone
  expression of p-Erk 44/42 (in words): remarkably increased
